Measurements taken from US11684067B2, “Generation of peroxyformic acid through polyhydric alcohol formate” (priority 2014, dated 2023).
Structures can show the parent of a compound that is named as a salt.

Key:
[1] = Perhydrolysis of esters in H2O2 solution, peracid by iodometric titration; assay type: physicochemical; conditions: 50 ppm ester; for peracid generation under the tested conditions: 150 ppm H2O2, pH 8.5; for Peracid: 150 ppm H2O2, pH 8.5, ambient
Description: [drawing 8] were added to 150 ppm H2O2 solution of pH 8.5 (DI water adjusted by adding 3.0 g of NaHCO3 per liter of water and then adjusted pH with Na2CO3) respectively under ambient conditions. The concentration of peroxycarboxylic acids were measured by an iodometric titration method.
Fifty (50) ppm various formic acid esters were added to 150 ppm H2O2 solution of pH 8.5 (DI water adjusted by adding 3.0 g of NaHCO3 per liter of water and then adjusted pH with Na2CO3) respectively under ambient conditions. The concentration of peroxycarboxylic acids were measured by an iodometric titration method. […]

pseudomonas = assay: Suspension test in cooling tower water samples; assay type: cell-based; conditions: 5 ppm Ester PFA / 6.13 ppm POAA, 10 minutes
Description: The antimicrobial efficacy of peroxyformic acid generated through the perhydrolysis of glycerol formatted were tested against pseudomonas in cooling tower samples at both 25° C. and 37° C., along with the peroxyacetic acid (POAA) controls, and the results are summarized in Table 6 and 7 below.

[2] = system: Aspergillus brasiliensis ATCC 16403; assay: Anti-fungal suspension test of Ester PFA, dirty conditions; assay type: cell-based
From the text: Aspergillus brasilensis ATCC 16403 was used to evaluate the efficacy in treatment with performic acid compositions according to the conditions shown in Table 18.

[3] = system: Nalidixic acid resistant E. coli O157:H7; assay: Reduction of E. coli on raw beef brisket, dip treatment; assay type: cell-based; conditions: 10 minutes dip, ambient, 220 ppm POAA / 180 ppm PFA / 50 ppm LAS per formula (Table 15)
Description: Nalidixic acid resistant E. coli O157:H7 was used to evaluate the efficacy in treatment with performic acid composition on raw beef brisket according to the conditions shown in Table 14.
The generation of PFA from the perhydrolysis of glycerol formates, PFA formulations, POAA formations and controls were evaluated as shown in Table 15.

[4] = system: Aspergillus brasiliensis ATCC 16404; assay: Fungicidal activity of ester PFA, dirty conditions (Example 20); assay type: cell-based; conditions: 35°C, 5 minutes
From the text: Various Bacillus and Aspergillus pathogens were used to evaluate the micro efficacy of ester PFA generated according to methods of the present invention.

[5] = Peninsula Cooling Water pH 8.81, 25°C
[6] = Peninsula Cooling Water pH 8.81, 37°C

## CCOC=O [Ethyl formate]
[1]
  peracid generation under the tested conditions: no detectable peracid
[1]; 1 min
  Peracid: 0.00 ppm
[1]; 5 min
  Peracid: 0.00 ppm
[1]; 10 min
  Peracid: 0.00 ppm
[1]; 15 min
  Peracid: 0.00 ppm
[1]; 25 min
  Peracid: 0.00 ppm
[1]; 35 min
  Peracid: 0.00 ppm

## O=COO [Ester PFA, peroxyformic acid]
pseudomonas; BP Cooling Water pH 8.74, 25°C
  Avg. Log10 Growth: 2.74 Log10
  Log10 Reduction: 2.93 Log10
pseudomonas; BP Cooling Water pH 8.74, 37°C
  Avg. Log10 Growth: 2.68 Log10
  Log10 Reduction: 2.42 Log10
pseudomonas; [5]
  Avg. Log10 Growth: 2.76 Log10
  Log10 Reduction: 2.42 Log10
pseudomonas; [6]
  Avg. Log10 Growth: 2.70 Log10
  Log10 Reduction: 2.40 Log10
[2]; 320 ppm PFA, 20°C, 5 minutes
  Log10 Growth: 3.27 Log10
  Log10 Reduction: 2.57 Log10
[2]; 320 ppm PFA, 20°C, 10 minutes
  Log10 Growth: 2.22 Log10
  Log10 Reduction: 3.61 Log10
[2]; 320 ppm PFA, 30 C., 5 minutes
  Log10 Growth: 2.19 Log10
  Log10 Reduction: 3.64 Log10
[2]; 320 ppm PFA, 30 C., 10 minutes
  Log10 Growth: <2.15 Log10
  Log10 Reduction: >3.68 Log10
[2]; 400 ppm PFA, 20°C, 5 minutes
  Log10 Growth: <2.15 Log10
  Log10 Reduction: >3.68 Log10
[2]; 400 ppm PFA, 20°C, 10 minutes
  Log10 Growth: <2.15 Log10
  Log10 Reduction: >3.68 Log10
[2]; 400 ppm PFA, 30 C., 5 minutes
  Log10 Growth: 1.48 Log10
  Log10 Reduction: 4.36 Log10
[2]; 400 ppm PFA, 30 C., 10 minutes
  Log10 Growth: <2.15 Log10
  Log10 Reduction: >3.68 Log10
[3]
  Average Log CFU/cm2: 2.74 Log CFU/cm2
  Log reduction: 1.30 Log
[4]; Table 23: 300 ppm PFA
  Log10 Growth: 3.87 Log10
  Log10 Reduction: 2.26 Log10
[4]; Table 23: 350 ppm PFA
  Log10 Growth: 2.23 Log10
  Log10 Reduction: 3.91 Log10

## CC(=O)OCC(COC(C)=O)OC(C)=O [Triacetin]
[1]
  peracid generation under the tested conditions: no detectable peracid
[1]; 1 min
  Peracid: 0.00 ppm
[1]; 5 min
  Peracid: 0.00 ppm
[1]; 10 min
  Peracid: 0.00 ppm
[1]; 15 min
  Peracid: 0.00 ppm
[1]; 25 min
  Peracid: 0.00 ppm
[1]; 35 min
  Peracid: 0.00 ppm
